# Structures can show the parent of a compound that is named as a salt.
# Molecular target: recombinant human AMCase (Homo sapiens, UniProt Q9BZP6)
# Experiment: Human AMCase Activity Assay
# Format: biochemical
# Conditions: recombinant hAMCase, 4-methylumbelliferyl chitobioside substrate, citrate buffer pH 5.2, 37° C., 60 minutes; read-out: Activity (IC50 value key)
# Summary of the method: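 Recombinant human enzyme with fluorogenic 4-methylumbelliferyl β-D-N,N′-diacetylchitobioside substrate in citrate buffer, pH 5.2, 60 min at 37 °C in the dark with shaking. Read-out is 4MU fluorescence at 460 nm.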
# Sequence of recombinant human AMCase (Q9BZP6 22-476): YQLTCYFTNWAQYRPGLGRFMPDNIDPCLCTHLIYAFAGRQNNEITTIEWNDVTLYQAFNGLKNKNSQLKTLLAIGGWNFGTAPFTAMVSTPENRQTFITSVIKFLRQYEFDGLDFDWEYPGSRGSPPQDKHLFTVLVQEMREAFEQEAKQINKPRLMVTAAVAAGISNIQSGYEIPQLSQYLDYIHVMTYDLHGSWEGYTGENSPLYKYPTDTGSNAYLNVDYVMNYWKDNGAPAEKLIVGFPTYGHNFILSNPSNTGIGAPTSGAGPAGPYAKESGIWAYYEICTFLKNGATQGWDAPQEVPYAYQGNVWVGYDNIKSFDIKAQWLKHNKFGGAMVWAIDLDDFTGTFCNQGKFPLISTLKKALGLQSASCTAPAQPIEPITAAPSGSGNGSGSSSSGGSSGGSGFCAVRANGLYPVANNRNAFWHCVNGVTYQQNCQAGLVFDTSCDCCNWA
row,SMILES,IC50 [µM]
1,"Nc1n[nH]c(N2CCN(C(=O)CC(N)c3ccc(F)cc3)CC2)n1 (stereo not shown) [Example 215, 3-amino-1-(4-(3-amino-1H-1,2,4-triazol-5-yl)piperazin-1-yl)-3-(4-fluorophenyl)propan-1-one dihydrochloride]",> 100
2,"Nc1n[nH]c(N2CCN(C(=O)[C@H](O)Cc3ccc(Cl)cc3)CC2)n1 [Example 72, (R)-1-(4-(3-amino-1H-1,2,4-triazol-5-yl)piperazin-1-yl)-3-(4-chlorophenyl)-2-hydroxypropan-1-one]",> 100
3,"C[C@@H](Oc1ccc(Cl)cc1)C(=O)N1CCN(c2nc(N)n[nH]2)CC1 [Example 9, (R)-1-(4-(3-amino-1H-1,2,4-triazol-5-yl)piperazin-1-yl)-2-(4-chlorophenoxy)-propan-1-one]",> 100
4,"Nc1n[nH]c(N2CCN(CCOc3c(Cl)cccc3Cl)CC2)n1 [Example 194, 5-(4-(2-(2,6-dichlorophenoxy)ethyl)piperazin-1-yl)-1H-1,2,4-triazol-3-amine]",10 to 100
5,"C[C@H](CN1CCN(c2nc(N)n[nH]2)CC1)Oc1ccc(Cl)cc1 [Example 241, (R)-5-(4-(2-(4-chlorophenoxy)propyl)piperazin-1-yl)-1H-1,2,4-triazol-3-amine dihydrochloride]",> 100
6,"CCC(CN1CCN(c2nc(N)n[nH]2)CC1)Oc1ccc(Br)cc1 (stereo not shown) [Example 60, 5-(4-(2-(4-bromophenoxy)butyl)piperazin-1-yl)-1H-1,2,4-triazol-3-amine]",10 to 100
7,"Nc1n[nH]c(N2CCC(C(=O)NCc3ccccc3F)CC2)n1 [Example 51, 1-(3-amino-1H-1,2,4-triazol-5-yl)-N-(2-fluorobenzyl)piperidine-4-carboxamide]",> 100
8,"CCC(Oc1ccc(Cl)cc1)C(=O)N1CCN(c2nc(N)n[nH]2)CC1 (stereo not shown) [Example 8, 1-(4-(3-amino-1H-1,2,4-triazol-5-yl)piperazin-1-yl)-2-(4-chlorophenoxy)-butan-1-one]",> 100

# The remaining lines, values ahead:
row,IC50 [µM],SMILES
1,< 0.1,"Cc1ccccc1CN(CCc1ccc(Cl)cc1)C1CCN(c2nc(N)n[nH]2)CC1 [Example 125, 1-(3-amino-1H-1,2,4-triazol-5-yl)-N-(4-chlorophenethyl)-N-(2-methylbenzyl)piperidin-4-amine]"
2,1 to 10,"Nc1n[nH]c(N2CCC(NS(=O)(=O)Cc3cccc(Cl)c3)CC2)n1 [Example 59, N-(1-(3-amino-1H-1,2,4-triazol-5-yl)piperidin-4-yl)-1-(3-chlorophenyl)methanesulfonamide]"
3,10 to 100,"Nc1n[nH]c(N2CCN(CCCc3ccc(Cl)cc3)C(CO)C2)n1 (stereo not shown) [Example 66, (4-(3-amino-1H-1,2,4-triazol-5-yl)-1-(3-(4-chlorophenyl)propyl)piperazin-2-yl)methanol]"
4,1 to 10,"CCC(CN1CCN(c2nc(N)n[nH]2)CC1)Oc1ccc(Cl)cc1 (stereo not shown) [Example 216, 5-(4-(2-(4-chlorophenoxy)butyl)piperazin-1-yl)-1H-1,2,4-triazol-3-aminedihydrochloride]"
5,< 0.1,"Nc1n[nH]c(N2CCC(N(CCc3ccc(Cl)cc3)Cc3ccccc3-c3ccccc3)CC2)n1 [Example 114, N-([1,1′-biphenyl]-2-ylmethyl)-1-(3-amino-1H-1,2,4-triazol-5-yl)-N-(4-chlorophenethyl) piperidin-4-amine]"
6,0.1 to 1,"CN(C1CCN(c2nc(N)n[nH]2)CC1)C(CO)Cc1ccc(Cl)cc1 (stereo not shown) [Example 130, 2-((1-(3-amino-1H-1,2,4-triazol-5-yl)piperidin-4-yl)(methyl)amino)-3-(4-chlorophenyl)propan-1-ol dihydrochloride]"
7,< 0.1,"Nc1n[nH]c(N2CCC(N(CCc3ccc(Cl)cc3)Cc3ccccc3F)CC2)n1 [Example 137, 1-(3-amino-1H-1,2,4-triazol-5-yl)-N-(4-chlorophenethyl)-N-(2-fluorobenzyl)piperidin-4-amine dihydrochloride]"
8,0.1 to 1,"Nc1n[nH]c(N2CCC(N(CCc3ccc(Cl)cc3)Cc3cnc4ccccc4n3)CC2)n1 [Example 116, 1-(3-amino-1H-1,2,4-triazol-5-yl)-N-(4-chlorophenethyl)-N-(quinoxalin-2-ylmethyl) piperidin-4-amine dihydrochloride]"

# Source: patent publication US10214531B2 (Institute for Drug Discovery, LLC, priority 2013, dated 2019)
